# Measured values as given in patent publication US9982028B2, “Recombinant human interferon-like proteins” (Novagen Holding Corporation, priority 2007, dated 2018).
# Entries after “also recorded” stand apart in the source; their conditions may differ.
# How the values were obtained:
# [1] = system: human melanoma A-375 xenografts; experiment: Human melanoma xenograft model; type: in vivo, athymic nude Balb/c mice; details: A-375 xenograft, 30 mg/kg (30,000 μg/kg) i.v. once every 2 days for 5 times
# [2] = system: human colon cancer LS 180 xenografts; experiment: Human colon cancer xenograft model; type: in vivo, athymic nude Balb/c mice; details: LS 180 xenograft, 30 mg/kg (30,000 μg/kg) i.v. once every 2 days for 5 times
# [3] = system: human leukemia HL 60(s) xenografts; experiment: Human leukemia xenograft model; type: in vivo, athymic nude Balb/c mice; details: HL 60(s) xenograft, 30 mg/kg (30,000 μg/kg) i.v. once every 2 days for 5 times
# [4] = General condition of the mice during treatment; type: in vivo; details: mice with human cancer xenografts, during the treatment period
smiles,measurement,setting,value
"O=c1[nH]cc(F)c(=O)[nH]1 [5-FU, 5-Fluorouracil, reference compound]",Inhibition rate,[1],67.2%
same,Tumor weight (X ± SD),[1]; n = 10,1.004 ± 0.105 g
same,Inhibition rate,[2],81.8%
same,Tumor weight (X ± SD),[2]; n = 10,0.758 ± 0.227 g
same,Inhibition rate,[3],76.0%
same,Tumor weight (X ± SD),[3]; n = 10,0.893 ± 0.289 g
same,"general condition of treated mice (eating, behavior, weight loss)",[4],"significant weight loss and activity reduction; also recorded: showed typical changes of eating and behavior, and weight loss"
